Data published in US10570117B2, “Phenylimidazole compound” (Otsuka Pharmaceutical Factory, Inc., priority 2015, dated 2020).
In brackets after ≈: the same amount, converted by molar mass. Read-outs that look alike come from different tables or passages of the source.

Legend:
[1] = Solubility in gastric juice or intestinal juice model fluid (precipitation method using DMSO); assay type: physicochemical; conditions: room temperature
Method in brief: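 Dissolved amount (μg/mL) quantified by UV of filtrate versus pre-made calibration curves. Precipitation approach: DMSO solutions spiked into pH 1.2 (JP 1st fluid) or pH 6.8 (JP 2nd fluid) medium, shaken at room temperature for 24 h before insolubles were filtered off.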

[2] = test system: lipoprotein lipase (LPL) gene; test: LPL mRNA elevating action (RT-PCR quantification of LPL mRNA in C2Cl2 cells); assay type: cell-based, mouse; conditions: Mus musculus, 24 h, compound 10 μM, ratio relative to the amount of LPL mRNA in cells with DMSO only, read-out: Rate of increase in LPL mRNA
Description: LPL mRNA Elevating Action
C2Cl2 cells (cell strain derived from striated muscle of mouse) were seeded in 96-well plates using a DMEM medium (Gibco) (containing 2 mM L-glutamine and 10% fetal bovine serum). After the cells were grown, the medium was removed. Subsequently, media obtained by adding dimethyl sulfoxide (DMSO) solutions of the compounds to the same medium as described above to a concentration of 10 μM were individually added to the cells and allowed to stand for 24 hours. The compound-containing media were removed, and the plates were washed with phosphate buffered saline. Thereafter, the remaining cells were lysed and subjected to a reverse transcription polymerase chain reaction (RT-PCR reaction) to obtain cDNA. Primers specific to lipoprotein lipase (LPL) gene, a necessary enzyme, etc., were added to the obtained cDNA. The mixture was set in 7500 Fast Real Time PCR System produced by Applied Biosystem to perform a PCR reaction (20 cycles) and the amount of LPL mRNA amplified was quantified. The LPL mRNA elevating action of each compound in the test cells was indicated as the ratio relative to the amount of LPL mRNA in cells allowed to stand in a medium to which only DMSO was added, with the amount being defined as 1.
As Comparative Example 1, a test was performed in the same manner as above, using a compound disclosed as the compound of Example 57 in WO2010/090200.

[3] = pH 1.2, simulated gastric fluid, kinetic from dmso stock, 1st fluid for Disintegration Test of Japanese Pharmacopoeia (pH: 1.2), read-out: Solubility (μg/mL) 1st fluid
[4] = pH 6.8, kinetic from dmso stock, 2nd fluid for Disintegration Test of Japanese Pharmacopoeia (pH: 6.8), read-out: Solubility (μg/mL) 2nd fluid

SMILES	melting point	solubility at 24 h [1, 3] [µg/mL]	solubility at 24 h [1, 4] [µg/mL]	fold induction at 10 µM [2]
COc1cc(OCc2c(F)cc(C(F)(F)F)c[n+]2[O-])ccc1-c1[nH]c(-c2ccc(F)nc2)nc1Br [Example 318]	105 to 120 °C	100 (≈ 180 µM)	8.7 (≈ 15.6 µM)	3.15
COc1cc(OCc2ccc(C(F)(F)F)cn2)ccc1-c1c[nH]c(-c2ccc(S(C)(=O)=O)nc2)n1 [Example 38]	213 to 214 °C	60.5 (≈ 120 µM)	0.9 (≈ 1.78 µM)	2.25
COc1cc(-c2[nH]c(-c3ccc(F)nc3)nc2Cl)ccc1OC(C)c1ncc(C(F)(F)F)cc1F (stereo not drawn) [Example 396]	113 to 118 °C	28 (≈ 54.8 µM)	< 0.4	2.93
COc1cc(OCc2ccc(C(F)(F)F)nc2)ccc1-c1c(C)nc(-c2ccc(Cl)nc2)n1CC1CC1 [Example 155]	164 to 166 °C	> 106	3 (≈ 5.67 µM)	3.06
COc1cc(OCc2cncc(C(F)(F)F)c2)ccc1-c1[nH]c(-c2ccc(Cl)nc2)nc1Cl [Example 241]	198 to 201 °C	–	–	2.45
COc1cc(OCc2ncc(Cl)cc2C(F)(F)F)ccc1-c1[nH]c(-c2ccc(F)nc2)nc1Cl [Example 280]	156 to 158 °C	–	–	2.91
COc1cc(OCc2ncc(C(F)(F)F)cc2Br)ccc1-c1[nH]c(-c2ccc(F)nc2)nc1Cl [Example 263]	166 to 170 °C	–	–	3.18
COc1cc(OCc2ncc(Cl)cc2Br)ccc1-c1[nH]c(-c2ccc(F)nc2)nc1Br [Example 264]	196 to 203 °C	–	–	2.99
COc1cc(OCc2ccc(F)cc2F)ccc1-c1cnc(-c2ccc(F)nc2)[nH]1 [Example 142]	168 to 173 °C	–	–	2.27
COc1cc(-c2c[nH]c(-c3ccc(Cl)nc3)n2)cc(OC)c1OCc1ccc(C(F)(F)F)cn1 [Example 71]	171 to 173 °C (dec.)	–	–	2.37
COc1cc(OCc2ncc(Cl)cc2F)ccc1-c1[nH]c(-c2ccc(Cl)nc2)nc1Br [Example 248]	172 to 176 °C	–	–	2.36
COc1cc(OCc2ccc(Br)cc2F)ccc1-c1[nH]c(-c2ccc(F)nc2)nc1Br [Example 260]	158 to 161 °C	–	–	2.95
COc1cc(OCc2ccc(C(F)(F)F)nc2)ccc1-c1nc(-c2ccc(Cl)nc2)[nH]c1Br [Example 222]	222 to 223 °C (dec.)	–	–	2.89
COc1cc(OCc2ccc(C(F)(F)F)cc2)ccc1-c1[nH]c(-c2ccc(F)nc2)nc1Cl [Example 176]	163 to 166 °C	–	–	2.83
Fc1ccc(-c2nc(F)c(-c3ccc(OCc4ncc(C(F)(F)F)cc4F)cc3)[nH]2)cn1 [Example 356]	222 to 227 °C	–	–	2.06
COc1cc(OCc2cccnc2C(F)(F)F)ccc1-c1[nH]c(-c2ccc(F)nc2)nc1Cl [Example 287]	165 to 171 °C	–	–	3.53
COc1cc(OCc2ncc(Cl)cc2F)ccc1-c1[nH]c(-c2ccc(Cl)nc2)nc1Cl [Example 249]	174 to 181 °C	–	–	2.5
COc1cc(OCc2ncc(C(F)(F)F)cc2Cl)ccc1-c1[nH]c(-c2ccc(F)nc2)nc1Cl [Example 262]	160 to 162 °C	–	–	3.61
COc1cc(OCc2ccnc(C(F)(F)F)c2)ccc1-c1[nH]c(-c2ccc(F)nc2)nc1Br [Example 271]	223 to 225 °C (dec.)	–	–	3.39
COc1cc(OCc2ncccc2C#N)ccc1-c1c[nH]c(-c2ccc(Cl)nc2)n1 [Example 33]	193 to 195 °C	–	–	2.92
COc1cc(OCc2ccc(C(F)(F)F)nc2)ccc1-c1c[nH]c(-c2ccc(Cl)cn2)n1 [Example 32]	186 to 189 °C	–	–	2.58
COc1cc(OCc2cncc(C(F)(F)F)c2)ccc1-c1[nH]c(-c2ccc(Cl)nc2)nc1Br [Example 252]	186 to 199 °C	–	–	2.58
COc1cc(OCc2ncc(C(F)(F)F)cc2Cl)ccc1-c1[nH]c(-c2ccc(F)nc2)nc1Br [Example 261]	179 to 180 °C	–	–	4.08

SMILES	melting point	solubility at 24 h [1, 3] [µg/mL]	solubility at 24 h [1, 4] [µg/mL]	fold induction at 10 µM [2]
COc1cc(OCc2ccncc2C(F)(F)F)ccc1-c1[nH]c(-c2ccc(F)nc2)nc1Cl [Example 277]	203 to 208 °C	–	–	2.66
COc1cc(OCc2ccc(C(F)(F)F)cn2)ccc1-c1nc(-c2ccc(Cl)nc2)[nH]c1Cl [Example 235]	180 to 182 °C	–	–	2.78
COc1cc(OCc2cccc(C(F)(F)F)n2)ccc1-c1c[nH]c(-c2ccc(Cl)nc2)n1 [Example 36]	222 to 224 °C	–	–	2.4
COc1cc(OCc2cccc(C(F)(F)F)n2)ccc1-c1[nH]c(-c2ccc(F)nc2)nc1Br [Example 273]	200 to 202 °C (dec.)	–	–	2.5
COc1cc(OCc2ccc(C(F)(F)F)nc2)ccc1-c1nc(-c2ccc(F)nc2)[nH]c1Cl [Example 227]	176 to 177 °C	–	–	5.08
COc1cc(OCc2cccc(C(F)(F)F)n2)ccc1-c1[nH]c(-c2ccc(F)nc2)nc1Cl [Example 172]	189 to 191 °C	–	–	3.12
COc1cc(OCc2ccc(C(F)(F)F)nc2)ccc1-c1nc(-c2ccc(Cl)nc2)[nH]c1Cl [Example 229]	205 to 208 °C	–	–	2.62
COc1cc(OCc2ccc(Cl)cc2F)ccc1-c1[nH]c(-c2ccc(F)nc2)nc1Br [Example 259]	165 to 167 °C	–	–	2.93
COc1cc(OCc2ccnc(C(F)(F)F)c2)ccc1-c1[nH]c(-c2ccc(Cl)nc2)nc1Cl [Example 242]	236 to 239 °C	–	–	2.38
COc1cc(OCc2ncc(Cl)cc2Br)ccc1-c1cnc(-c2ccc(F)nc2)[nH]1 [Example 134]	176 to 180 °C	–	–	2.85
COc1cc(OCc2ccc(F)cc2F)ccc1-c1[nH]c(-c2ccc(F)nc2)nc1Cl [Example 285]	163 to 165 °C	–	–	3.01
COc1cc(OCc2cnc(Cl)cn2)ccc1-c1c[nH]c(-c2ccc(F)nc2)n1 [Example 123]	197 to 199 °C	–	–	3.22
COc1cc(OCc2ncc(C(F)(F)F)cc2Br)ccc1-c1[nH]c(-c2ccc(F)nc2)nc1Br [Example 254]	148 to 170 °C	–	–	2.71
COc1cc(OCc2ccc(C(F)(F)F)nc2)ccc1-c1nc(-c2ccc(F)nc2)[nH]c1Br [Example 224, 5-[(4-(4-bromo-2-(6-fluoropyridin-3-yl)-1H-imidazol-5-yl)-3-methoxyphenoxy)methyl]-2-(trifluoromethyl)pyridine]	195 to 197 °C (dec.)	–	–	2.29
COc1cc(OCc2ccc(F)cc2F)ccc1-c1[nH]c(-c2ccc(F)nc2)nc1Br [Example 258]	164 to 166 °C	–	–	2.91
COc1cc(OCc2cnc(Cl)cn2)ccc1-c1c[nH]c(-c2ccc(Cl)nc2)n1 [Example 20]	219 to 221 °C	–	–	2.78
COc1cc(OCc2cccnc2C(F)(F)F)ccc1-c1[nH]c(-c2ccc(F)nc2)nc1Br [Example 278]	176 to 179 °C	–	–	2.95
COc1cc(OCc2ccc(C(F)(F)F)cn2)ccc1-c1c(Cl)nc(-c2ccc(F)nc2)n1CC1CC1 [Example 296]	–	73 (≈ 137 µM)	2.3 (≈ 4.32 µM)	3.48
COc1cc(-c2cnc(C3CCC3)[nH]2)ccc1OCc1ncc(C(F)(F)F)cc1F [Example 372]	–	80.4 (≈ 191 µM)	33.5 (≈ 79.5 µM)	1.95
COc1cc(OCc2ccc(C(F)(F)F)nc2)ccc1-c1nc(C2CCCCC2)[nH]c1C [Example 48]	–	> 89	80.8 (≈ 181 µM)	3.02
COc1cc(OCc2ccc(C(F)(F)F)nc2)ccc1-c1c(Br)nc(-c2ccc(Cl)nc2)n1C [Example 299]	140 to 142 °C	–	–	2.97
COc1cc(-c2cnc(C(C)C)[nH]2)ccc1OCc1ncc(C(F)(F)F)cc1F [Example 382]	–	74.8 (≈ 183 µM)	62.1 (≈ 152 µM)	1.41
